One block for each compound: values may come before it.
Key:
PU.1 [1] = biological target: T1, PU.1 (Mus musculus, UniProt P17433); assay: q-PCR of TIM-3 expression in Blast-PU.1 cells (PU.1 inhibition potency); assay type: cell-based; settings: 10 μM, Blast-PU.1 cells, 24 h treatment, q-PCR
T1 construct: EGFP (from 'PU.1-EGFP-vector'); expressed in transfected cells
Excerpt: An acute T cell lymphoblastic leukemia (T-ALL) disease model was used to evaluate the effect of the newly synthesized compounds on PU.1 inhibition. Pten, a famous tumor suppressor gene, was […] deleted in mouse hematopoietic stem cells and their differentiated progeny, and this would eventually lead to a progressive T-ALL in about two months from born. It is believed that immune checkpoint T cell immunoglobulin mucin-3 (TIM-3), a surface marker for the isolation of pure leukemia-initiating cells (LICs), is transcriptionally regulated by transcription factor PU.1 in the Pten-null T-ALL model. Therefore, the expression level of TIM-3 was detected and quantified to characterize the inhibition potency of the compounds after 24 h treatment of graded concentrations of compounds. Blast cells were transfected with either PU.1-EGFP-vector or EGFP-vector to yield stable cell lines blast-PU.1 and blast-EGFP, respectively. These cell lines were used for compound testing in vitro. Compounds DB1976 and DB2115 were tested as well for comparison. Blast-PU.1 and blast-EGFP are the ideal cell lines for compounds testing in vitro, since they are T-ALL blast cells with […] TIM-3 and PU.1 expression level.

[2] = test system: T-ALL blast cells and TIM-3-high LICs; assay: Pten-null T-ALL mouse model, compound I-1 and/or rapamycin treatment
Protocol: To generate a Pten-null T-ALL mouse model, Pten was 40% deleted in mouse fetal liver hematopoietic stem cells (HSCs), followed by PI3K-AKT pathway activation, hematopoietic disorder and T-ALL development. In the T-ALL crisis stage, T-ALL blasts and LICs would infiltrate mouse hematopoietic organs and non-hematopoietic organs.
After treatment, hematopoietic and non-hematopoietic organ morphology of the mice was analyzed using hematoxylin-eosin (H&E) staining.

[3] = test system: bleomycin-induced pulmonary fibrosis; assay: bleomycin-induced pulmonary fibrosis, preventive and therapeutic models; assay type: in vivo, mouse; settings: preventive model, 5mpk i.p. for 4 weeks after single bleomycin injection
Protocol: Methods: To evaluate the preventive and therapeutic effects of compound I-1 on pulmonary fibrosis, bleomycin was used to establish two animal models of pulmonary fibrosis with different drug intervention (6-8 weeks, C57BL/6, male). Bleomycin (0.025U, Code.D11063, OKA, China) was injected by a single intratracheal application. Equal volumes of sterilized saline served as a control. (I) Preventive model of bleomycin-induced pulmonary fibrosis. Compounds compound I-1, positive control DB1976, or vehicle (saline) were treated (injected intraperitoneally, i.p.) immediately after single bleomycin injection for 4 weeks (FIG. 4a). (II) Therapeutic model of bleomycin-induced pulmonary fibrosis. Mice were pre-charged with bleomycin for 11 days to induced pulmonary fibrosis, then treated with compounds compound I-1, positive control DB1976, or vehicle (saline) for 17 days, total time is 4 weeks after bleomycin treatment (FIG. 4h). After the last day of treatment of both models, mice were fasted overnight and euthanized. A part of lung was fixed with paraformaldehyde, embedded with paraffin, and then sliced for H&E and Sirius red staining to check pathological features, and Ashcroft scores. Hubner, R. H. et al. Biotechniques 44, 507-511, 514-507, doi:10.2144/000112729 (2008). Another part of lung were collected and stored in −80° C. after liquid nitrogen quick-freezing, RNA isolation (Code.R6934, OMEGA, USA), first cDNA reverse (Code.AT341, TransGen, China), SYBR mix (Code.AQ601, TransGen, China) for Q-PCR (LightCycle96, Roche) to verify several fibrosis-related genes mRNA level, such as, Col1a1 and Col1a2.

[4] = test system: HFD/CCL4-induced NASH and liver fibrosis; assay: High-fat diet (HFD) combined with CCl4 (lower dose)-induced NASH model; assay type: in vivo, mouse
Excerpt: (§1) Methods: To evaluate the potential therapeutic effects of compound I-1 on liver disorders, including liver fat steatosis and accumulation, nonalcoholic fatty liver disease (NAFLD), nonalcoholic steatosis hepatitis (NASH), and liver fibrosis, three mice models (C57BL/6, male, 8 weeks old) were used. (I) NASH diet (Code.TD.160785, ENVIGO, USA)-induced NASH model: All mice were fed with NASH diet for 10 weeks. Mice were then randomly distributed into three groups, and each group was assigned to be injected daily with vehicle, compound I-1 (2.5mpk or 5mpk, i.p.), or DB1976 (2.5mpk, i.p, as a positive control) for another 6 weeks on continuous NASH diet. A group with normal regular diet was treated with vehicle as health control. (II) High-fat diet (HFD) combinate with CCl4 (lower dose)—induced NASH model. Mice were fed with normal regular diet or HFD (kcal fat 60%—D12492, research diets) for 10 weeks, then the HFD mice were divided into two groups randomly based on the rule of minimum weight differences. Each group was assigned to be injected with CCl4 (25% v/v in olive oil, 0.5 mL/kg body weight) or pure olive oil (i.p.) twice a week for 4 weeks. Compound 1-1 or vehicle (saline) were injected (i.p.) once daily for 4 weeks at the same time with CCl4 under continuous HFD. (III) CCl4 (higher dose)—induced liver fibrosis model. Liver fibrosis was induced by CCl4 injection (20% v/v in olive oil, 10 mL/kg body weight) twice a week for 6 weeks, compound I-1 or vehicle are also injected (i.p.) once daily for 6 weeks at the same time with CCl4 application. Ail the mice in the above-mentioned three models were observed daily. After the last day of treatment of all the models, mice were fasted overnight and euthanized. Serum was collected after centrifuging of the whole blood at 4 degrees, and blood biochemistry parameters were tested through automatic biochemical instrument (BS-240VET, Mindray). Part of liver tissues were fixed with paraformaldehyde, embedded with paraffin, and then sliced for H&E or Sirius red staining to check pathological features, and NAFLD scores. Kleiner, D. E. et al. Hepatology 41, 1313-1321, doi:10.1002/hep.20701 (2005). Part of liver tissues were used fresh, embedded in optimum cutting temperature compound, and sectioned. The sections were stained with 0.5% oil red 0 according to standard procedures after fixed in 4% paraformaldehyde in PBS. Another part of liver tissues were collected and stored in −80° C. after liquid nitrogen quick-freezing, RNA. isolation (Code.R6934, OMEGA., USA), first cDNA reverse (Code.AT341, TransGen, China), SYBR mix (Code.AQ601, TransGen, China) for Q-PCR (LightCycler®96, Roche) to verify genes mRNA level, such as, fibrosis-related genes, Col1a1 and Col1a2; inflammation-related genes, IL-6 and IL-1β.

PU.1 [5] = biological target: PU.1 (Homo sapiens, UniProt P17947); settings: cited from earlier work
[6] = test system: bleomycin-induced skin fibrosis; assay: bleomycin-induced skin fibrosis, preventive and therapeutic models; assay type: in vivo, mouse
Protocol: Methods: To evaluate the preventive and therapeutic effects of compound I-1 on skin fibrosis, bleomycin was used to establish two animal models of skin fibrosis with different drug intervention (6-8 weeks, C57BL/6, male). Skin fibrosis was induced by local injection of bleomycin (0.5 mg/mL, 0.1 ml/mouse) in a skin defined area (˜1 cm^2), where the hair was removed in advance, at the upper back every other day. Subcutaneous saline injections served as controls. (I) Preventive model of bleomycin-induced skin fibrosis: Compound I-1, positive control DB1976, or vehicle (saline) were injected i.p. simultaneously with bleomycin for 4 weeks (FIG. 3a). (II) Therapeutic model of bleomycin-induced skin fibrosis: Mice were pre-charged with bleomycin for 3 weeks to induce skin fibrosis, then treated with compound I-1, positive control DB1976, or vehicle (saline) for another 3 weeks, total time is 6 weeks after the first bleomycin treatment (FIG. 30. After the last day of treatment of both models, mice were fasted overnight and euthanized. Part of the skin was fixed with paraformaldehyde after fully flat on a foil, embedded with paraffin, and then sliced for H&E, Sirius red and Masson staining to check pathological features. The epidermal thickness of each sample was calculated quantitatively with image J. Another part of skin was collected and stored at −80° C. after liquid nitrogen quick-freezing, RNA isolation (Code.R6934, OMEGA, USA), first cDNA reverse (Code.AT341, TransGen, China), SYBR mix (Code.AQ601, TransGen, China) for Q-PCR (LightCycler® 96, Roche) to verify several fibrosis-related genes mRNA level, such as, Col1a1 and Col1a2.

NASH = settings: in vivo; Liu et al., J Hepatol 2020; cited from earlier work
NASH diet-induced NASH = NASH diet-induced NASH model; assay type: in vivo, mouse; settings: 2.5mpk i.p. daily for 6 weeks
Excerpt: as §1

other ETS family numbers = settings: cited from earlier work
[7] = test system: skin, liver and lung fibrosis; settings: Wohlfahrt et al., Nature 2019; cited from earlier work
[8] = preventive model, 5mpk i.p., 4 weeks

- inhibition of TIM-3 expression (PU.1 [1]): no obvious inhibition
Compound: N=C(N)c1ccc2nc(-c3ccc(NC(=O)[C@@H]4CCCN4C(=O)[C@H]4CCCN4C(=O)c4ccc(-c5nc6ccc(C(=N)N)cc6[nH]5)cc4)cc3)[nH]c2c1 [Compound I-3, (S)-1-((4-(6-carbamimidoyl-1H-benzo[d]imidazol-2-yl)benzoyl)-D-prolyl)-N-(4-(6-carbamimidoyl-1H-benzo[d]imidazol-2-yl)phenyl)pyrrolidine-2-carboxamide]

Compound: CO[C@H]1C[C@@H]2CC[C@@H](C)[C@@](O)(O2)C(=O)C(=O)N2CCCC[C@H]2C(=O)O[C@H]([C@H](C)C[C@@H]2CC[C@@H](O)[C@H](OC)C2)CC(=O)[C@H](C)/C=C(\C)[C@@H](O)[C@@H](OC)C(=O)[C@H](C)C[C@H](C)/C=C/C=C/C=C/1C [rapamycin, reference compound]
- proportion of blasts in bone marrow ([2]; after two days' treatment at blast crisis stage, without treatment 96.4%): 13.2%
- TIM-3 high LICs proportion ([2]; after two days' treatment, bone marrow, without treatment 33.5%): 22.2%

- inhibition of TIM-3 expression (PU.1 [1]): no obvious inhibition
Compound: N=C(N)c1ccc2nc(-c3ccc(NC(=O)[C@H]4CCCN4C(=O)[C@H]4CCCN4C(=O)c4ccc(-c5nc6ccc(C(=N)N)cc6[nH]5)cc4)cc3)[nH]c2c1 [Compound I-2, (R)-1-((4-(6-carbamimidoyl-1H-benzo[d]imidazol-2-yl)benzoyl)-D-prolyl)-N-(4-(6-carbamimidoyl-1H-benzo[d]imidazol-2-yl)phenyl)pyrrolidine-2-carboxamide]

Compound: N=C(N)c1ccc2nc(-c3ccc(-c4nc5ccc(C(=N)N)cc5[nH]4)[se]3)[nH]c2c1 [DB1976, reference compound]
- pulmonary fibrosis progress (staining, Ashcroft scores, collagen deposition, Col1a1, Col1a2 mRNA) [3]: significantly prevented
- serum triglyceride (TG) and total-cholesterol (TC) ([4]; fasting serum, i.p. once daily for 4 weeks): reduced
- body weight, gWAT and iWAT weight radio increased by HFD/CCL4 ([4]; i.p. once daily for 4 weeks with CCl4 under HFD): reversed
- collagen deposition (sirius red staining) and liver mRNA level of Col1a1 and Col1a2 ([4]; mouse, in vivo): reduced
- liver fibrosis induced by HFD/CCL4 application ([4]; mouse, in vivo): significantly alleviated
- potency as PU.1 inhibitor (PU.1 [5]): limited potency
- skin fibrosis progress ([6]; preventive model, 5mpk i.p. simultaneously with bleomycin for 4 weeks, vs bleomycin/vehicle): significantly prevented
- collagen deposition [6, 8]: reducing
- epidermal thickness [6, 8]: reducing
- mRNA level of Col1a1 and Col1a2 ([6]; preventive model, 5mpk i.p., 4 weeks, skin): decreasing
- bleomycin-induced skin fibrosis ([6]; therapeutic model, 3 weeks bleomycin then 3 weeks treatment, 5mpk): significantly alleviated and reversed
- effects on NASH progress (liver steatosis, inflammation, fibrosis, glucose homeostasis) (NASH): beneficial effects
- metabolic disturbance by NASH diet (body weight, liver fat, ALT, LDL-C, TC, IL-6, IL-1β, Col1a1, Col1a2) (NASH diet-induced NASH): potently alleviated
- activity on other ETS family numbers (other ETS family numbers): inhibitory activity
- skin, liver and lung fibrosis [7]: alleviated

— patent US20240018129A1, “COMPOUNDS AS PU. 1 INHIBITORS” (PEKING UNIVERSITY, priority 2020, published 2024)
